In paper PMC6151383 (Molecules : A Journal of Synthetic Chemistry and Natural …, 2017):
≈ marks a conversion by molar mass, not a printed value. Where two headings read alike, the source gives them in different places.

Key:
[1] = system: Lichtheimia corymbifera 272; assay: Antifungal microdilution broth MIC, L. corymbifera; assay type: cell-based; details: Lichtheimia corymbifera, 272; 48 h incubation; read-out: MIC LC 48 h
[2] = system: Escherichia coli CCM 4517; assay: Antibacterial microdilution broth MIC, E. coli; assay type: cell-based; details: Escherichia coli, CCM4517; 48 h incubation; read-out: MIC EC 48 h
[3] = system: Candida glabrata 20/I; assay: Antifungal microdilution broth MIC, C. glabrata; assay type: cell-based; details: Nakaseomyces glabratus
[4] = system: Aspergillus fumigatus 231; assay: Antifungal microdilution broth MIC, A. fumigatus; assay type: cell-based; details: Aspergillus fumigatus, 231; 48 h incubation; read-out: MIC AF 48 h
[5] = system: Klebsiella pneumoniae D 11750/08
[6] = system: Candida krusei E28; assay: Antifungal microdilution broth MIC, C. krusei; assay type: cell-based; details: Pichia kudriavzevii
[7] = system: Trichosporon asahii 1188; assay: Antifungal microdilution broth MIC, T. asahii; assay type: cell-based
[8] = system: Mycobacterium tuberculosis 331/88 (H37Rv); assay: In vitro antimycobacterial MIC, M. tuberculosis; assay type: cell-based
[9] = system: Trichophyton interdigitale 445; assay: Antifungal microdilution broth MIC, T. interdigitale; assay type: cell-based
[10] = system: Candida tropicalis 156; assay: Antifungal microdilution broth MIC, C. tropicalis; assay type: cell-based
[11] = system: Candida albicans ATCC 44859; assay: Antifungal microdilution broth MIC, C. albicans; assay type: cell-based
[12] = system: Pseudomonas aeruginosa CCM 1961; assay: Antibacterial microdilution broth MIC, P. aeruginosa; assay type: cell-based; details: Pseudomonas aeruginosa, CCM1961; 48 h incubation; read-out: MIC PA 48 h
[13] = system: Staphylococcus aureus CCM 4516/08; assay: Antibacterial microdilution broth MIC, S. aureus; assay type: cell-based; details: Staphylococcus aureus, CCM4516; 48 h incubation; read-out: MIC SA 48 h
[14] = system: M. kansasii 6509/96; assay: In vitro antimycobacterial MIC, M. kansasii clinical isolate; assay type: cell-based; details: Mycobacterium kansasii
[15] = system: ESBL-positive Klebsiella pneumoniae J 14368/08
[16] = system: Enterococcus faecalis J 14365/08; assay: Antibacterial microdilution broth MIC, E. faecalis; assay type: cell-based; details: Enterococcus faecalis, J14365/08; 48 h incubation; read-out: MIC EF 48 h
[17] = system: Mycobacterium avium 330/88; assay: In vitro antimycobacterial MIC, M. avium; assay type: cell-based
[18] = system: Mycobacterium kansasii 235/80; assay: In vitro antimycobacterial MIC, M. kansasii 235/80; assay type: cell-based
[19] = system: Staphylococcus epidermidis H 6966/08; assay: Antibacterial microdilution broth MIC, S. epidermidis; assay type: cell-based; details: Staphylococcus epidermidis
[20] = E28, 48 h incubation, read-out: MIC CK 48 h
[21] = Trichosporon asahii, 1188, 24 h, read-out: MIC TA 24 h
[22] = Trichosporon asahii, 1188, 48 h, read-out: MIC TA 48 h
[23] = 336 h, 14 d incubation, read-out: MIC Mtb. 331/88 14 d
[24] = 504 h, 21 d incubation, read-out: MIC Mtb. 331/88 21 d
[25] = Candida tropicalis, 156, 48 h incubation, read-out: MIC CT 48 h
[26] = ATCC44859, 24 h, read-out: MIC CA 24 h
[27] = ATCC44859, 48 h, read-out: MIC CA 48 h
[28] = 6509/96, 168 h, 7 d incubation, read-out: MIC M. kansasii 6509/96 7 d
[29] = 6509/96, 336 h, 14 d incubation, read-out: MIC M. kansasii 6509/96 14 d
[30] = 6509/96, 504 h, 21 d incubation, read-out: MIC M. kansasii 6509/96 21 d
[31] = 330/88, 336 h, 14 d incubation, read-out: MIC M. avium 330/88 14 d
[32] = 330/88, 504 h, 21 d incubation, read-out: MIC M. avium 330/88 21 d
[33] = 235/80, 168 h, 7 d incubation, read-out: MIC M. kansasii 235/80 7 d
[34] = 235/80, 336 h, 14 d incubation, read-out: MIC M. kansasii 235/80 14 d
[35] = 235/80, 504 h, 21 d incubation, read-out: MIC M. kansasii 235/80 21 d
[36] = H6966/08, 48 h incubation, read-out: MIC SE 48 h
[37] = Trichophyton interdigitale, 445, 72 h incubation, read-out: MIC TI 72 h
[38] = Trichophyton interdigitale, 445, 120 h incubation, read-out: MIC TI 120 h

Row | SMILES | MIC [1] | MIC [2] | MIC [4] | MIC KP 24 h [5] | MIC KP 48 h [5] | MIC [8, 23] | MIC [8, 24] | MIC [12] | MIC [13] | MIC [14, 28] | MIC [14, 29] | MIC [14, 30] | MIC KP-E 24 h [15] | MIC KP-E 48 h [15] | MIC [16] | MIC [17, 31] | MIC [17, 32] | MIC [18, 33] | MIC [18, 34] | MIC [18, 35] | other results
1 | O=S(=O)(Nc1ncccn1)c1ccc(N=Cc2cc(Br)ccc2O)cc1 [Compound 2d, 4-[(5-Bromo-2-hydroxybenzylidene)amino]-N-(pyrimidin-2-yl)benzenesulfonamide] | > 500 µM | 500 µM (≈ 217 µg/mL) | 250 µM (≈ 108 µg/mL) | 500 µM (≈ 217 µg/mL) | 500 µM (≈ 217 µg/mL) | 16 µM (≈ 6.93 µg/mL) | 32 µM (≈ 13.9 µg/mL) | 500 µM (≈ 217 µg/mL) | 500 µM (≈ 217 µg/mL) | 32 µM (≈ 13.9 µg/mL) | 32 µM (≈ 13.9 µg/mL) | 62.5 µM (≈ 27.1 µg/mL) | 500 µM (≈ 217 µg/mL) | 500 µM (≈ 217 µg/mL) | > 500 µM | 125 µM (≈ 54.2 µg/mL) | 125 µM (≈ 54.2 µg/mL) | 32 µM (≈ 13.9 µg/mL) | 62.5 µM (≈ 27.1 µg/mL) | 62.5 µM (≈ 27.1 µg/mL) | MIC ([3]; 24 h, read-out: MIC CG 24 h): 62.5 µM (≈ 27.1 µg/mL); MIC ([3]; 48 h, read-out: MIC CG 48 h): 62.5 µM (≈ 27.1 µg/mL); MIC [6, 20]: 250 µM (≈ 108 µg/mL); MIC [7, 21]: 62.5 µM (≈ 27.1 µg/mL); MIC [7, 22]: 62.5 µM (≈ 27.1 µg/mL); MIC ([9]; Trichophyton interdigitale, 445, 72 h, read-out: MIC TI 72 h): 62.5 µM (≈ 27.1 µg/mL); MIC ([9]; Trichophyton interdigitale, 445, 120 h, read-out: MIC TI 120 h): 62.5 µM (≈ 27.1 µg/mL); MIC [10, 25]: 250 µM (≈ 108 µg/mL); MIC [11, 26]: 125 µM (≈ 54.2 µg/mL); MIC [11, 27]: 125 µM (≈ 54.2 µg/mL); MIC [19, 36]: 250 µM (≈ 108 µg/mL)
2 | O=S(=O)(Nc1ncccn1)c1ccc(N=Cc2cc(I)ccc2O)cc1 [Compound 2e, 4-[(2-Hydroxy-5-iodobenzylidene)amino]-N-(pyrimidin-2-yl)benzenesulfonamide] | > 500 µM | 250 µM (≈ 120 µg/mL) | 250 µM (≈ 120 µg/mL) | 500 µM (≈ 240 µg/mL) | 500 µM (≈ 240 µg/mL) | 62.5 µM (≈ 30 µg/mL) | 125 µM (≈ 60 µg/mL) | 500 µM (≈ 240 µg/mL) | 250 µM (≈ 120 µg/mL) | 32 µM (≈ 15.4 µg/mL) | 32 µM (≈ 15.4 µg/mL) | 62.5 µM (≈ 30 µg/mL) | 500 µM (≈ 240 µg/mL) | 500 µM (≈ 240 µg/mL) | 500 µM (≈ 240 µg/mL) | 125 µM (≈ 60 µg/mL) | 250 µM (≈ 120 µg/mL) | 32 µM (≈ 15.4 µg/mL) | 62.5 µM (≈ 30 µg/mL) | 125 µM (≈ 60 µg/mL) | MIC ([3]; 24 h, read-out: MIC CG 24 h): 62.5 µM (≈ 30 µg/mL); MIC ([3]; 48 h, read-out: MIC CG 48 h): 62.5 µM (≈ 30 µg/mL); MIC ([6]; E28, 24 h, read-out: MIC CK 24 h): 62.5 µM (≈ 30 µg/mL); MIC ([6]; E28, 48 h, read-out: MIC CK 48 h): 125 µM (≈ 60 µg/mL); MIC [7, 21]: 125 µM (≈ 60 µg/mL); MIC [7, 22]: 125 µM (≈ 60 µg/mL); MIC [9, 37]: 31.2 µM (≈ 15 µg/mL); MIC [9, 38]: 31.2 µM (≈ 15 µg/mL); MIC ([10]; Candida tropicalis, 156, 24 h, read-out: MIC CT 24 h): 125 µM (≈ 60 µg/mL); MIC ([10]; Candida tropicalis, 156, 48 h, read-out: MIC CT 48 h): 125 µM (≈ 60 µg/mL); MIC [11, 26]: 62.5 µM (≈ 30 µg/mL); MIC [11, 27]: 125 µM (≈ 60 µg/mL); MIC ([19]; H6966/08, 24 h, read-out: MIC SE 24 h): 62.5 µM (≈ 30 µg/mL); MIC ([19]; H6966/08, 48 h, read-out: MIC SE 48 h): 125 µM (≈ 60 µg/mL)
3 | O=[N+]([O-])c1ccc(O)c(C=Nc2ccc(S(=O)(=O)Nc3ncccn3)cc2)c1 [Compound 2f, 4-[(2-Hydroxy-5-nitrobenzylidene)amino]-N-(pyrimidin-2-yl)benzenesulfonamide] | 500 µM (≈ 200 µg/mL) | 250 µM (≈ 99.8 µg/mL) | > 500 µM | >500 µM | >500 µM | 250 µM (≈ 99.8 µg/mL) | 250 µM (≈ 99.8 µg/mL) | 500 µM (≈ 200 µg/mL) | 250 µM (≈ 99.8 µg/mL) | 125 µM (≈ 49.9 µg/mL) | 250 µM (≈ 99.8 µg/mL) | 250 µM (≈ 99.8 µg/mL) | 500 µM (≈ 200 µg/mL) | 500 µM (≈ 200 µg/mL) | 500 µM (≈ 200 µg/mL) | 500 µM (≈ 200 µg/mL) | 1000 µM (≈ 399 µg/mL) | 125 µM (≈ 49.9 µg/mL) | 250 µM (≈ 99.8 µg/mL) | 500 µM (≈ 200 µg/mL) | MIC ([3]; 48 h incubation, read-out: MIC CG 48 h): 250 µM (≈ 99.8 µg/mL); MIC [6, 20]: > 500 µM; MIC ([7]; Trichosporon asahii, 1188, 48 h incubation, read-out: MIC TA 48 h): > 500 µM; MIC [9, 37]: 62.5 µM (≈ 25 µg/mL); MIC [9, 38]: 62.5 µM (≈ 25 µg/mL); MIC ([9]; Trichophyton interdigitale, 445, incubation time not given, read-out: MIC for T. interdigitale): 62.5 µM (≈ 25 µg/mL); MIC [10, 25]: > 500 µM; MIC ([11]; ATCC44859, 48 h incubation, read-out: MIC CA 48 h): 500 µM (≈ 200 µg/mL); MIC [19, 36]: 500 µM (≈ 200 µg/mL)
